Experiment: Chemical stability of daptomycin formulations on storage (daptomycin peak purity, anhydrodaptomycin impurity)
Assay type: physicochemical
Conditions: with only propylene glycol, 2-8° C.
Method: For purposes of the present invention, “stable” or “substantially stable” with respect to liquid daptomycin compositions shall be understood to mean compositions having less than about 5% anhydrodaptomycin impurity compared to a reference standard and/or having a peak purity of at least about 95% after 1 month at room temperature or 12 months at refrigerated temperatures of from about 2 to about 8° C. Impurity and peak purity calculated based on integration of major impurity anhydrodaptomycin and daptomycin peaks only and minor impurities not accounted for calculations.
Note: Impurities presented here represent increase compared to standard injections. The peak at RRT of about 1.12 (Anhydrodaptomycin) is major impurity that increases over the time. The same impurity is also present in standard injections to the extent of 0.6 to 0.8%. Here onwards, impurity means it is Anhydrodaptomycin and peak purity refers to area percentage of Daptomycin, when only two peaks are integrated, Daptomycin and Anhydrodaptomycin.
Note: Impurities presented here represent increase compared to standard injections. The peak at RRT 1.12 (Anhydrodaptomycin) is major impurity that increases over the time. The same impurity is also present in standard injections to the extent of 0.6 to 0.8%.

stable up to (time): up to 1 month
Structure (SMILES): CCCCCCCCCC(=O)N[C@@H](Cc1c[nH]c2ccccc12)C(=O)N[C@H](CC(N)=O)C(=O)N[C@@H](CC(=O)O)C(=O)N[C@@H]1C(=O)NCC(=O)N[C@@H](CCCN)C(=O)N[C@@H](CC(=O)O)C(=O)N[C@H](C)C(=O)N[C@@H](CC(=O)O)C(=O)NCC(=O)N[C@H](CO)C(=O)N[C@@H]([C@H](C)CC(=O)O)C(=O)N[C@@H](CC(=O)c2ccccc2N)C(=O)O[C@@H]1C [Daptomycin]

Reference: US11058745B1, “Stable liquid pharmaceutical compositions of daptomycin” (JNF LLC., priority 2018, dated 2021)
